# In US20050026987A1, “CBI analogues of the duocarmycins and CC-1065” (The Scripps Research Institute, priority 2003, published 2005):
# Values joined by “and” are separate entries in the source; they are usually repeats but may differ in a detail not shown here. Identical values can stand only once. Like-named read-outs stand apart in the source and are kept apart here.
# Assays:
# L1210 [1] = assay: L1210 cytotoxic potency; details: for distinction NO2 versus OMe substituent (more potent than corresponding methoxy derivative): C5, C6, C7 nitro vs corresponding methoxy; for fold less potent than C5 acyl derivative 54: 52: versus the C5 acyl derivatives, 62: versus 54
# L1210 [2] = details: cited from earlier work
# w794 DNA = assay: DNA alkylation selectivity, efficiency and rate in w794 DNA; format: biochemical
# [3] = relative to (+)-CBI-indole (R=H)
# [4] = read-out: IC50 (cytotoxic potency), L1210
# [5] = Mus musculus, L1210, read-out: IC50 (cytotoxic potency)
# [6] = relative to CBI-TMI, IC50=30 pM
smiles,measurement,setting,value
"O=C1C=C2N(C(=O)c3cc4c(ccc5ccccc54)[nH]3)C[C@H]3C[C@@]23c2ccccc21 [(+)-77, N^2-[(Benz[e]indole-2-yl)carbonyl]-1,2,9,9a-tetrahydrocyclopropa[c]benz[e]indol-4-one]",reduction in potency relative to the fused pyrrole 69 or the fused furan 71,L1210 [1],6-8 fold
same,reduction in cytotoxic potency compared to (+)-CBI-indole,L1210 [1]; [3],2 fold
"O=C1C=C2N(C(=O)c3cc4cc5ccccc5cc4[nH]3)C[C@@H]3C[C@]23c2ccccc21 [(+)-78, N^2-[(Benz[f]indole-2-yl)carbonyl]-1,2,9,9a-tetrahydrocyclopropa[c]benz[e]indol-4-one]",increase in cytotoxic potency over (+)-CBI-indole (5),L1210 [1]; [3],5 fold
NC(=O)N1CCc2c1ccc1[nH]c(C(=O)N3C[C@H]4C[C@@]45C3=CC(=O)c3ccccc35)cc21 [(+)-CBI-CDPI1],IC50,"L1210 [2]; disclosed in prior studies (J. Org. Chem. 1996, 61, 4894), read-out: IC50 (cytotoxic potency), prior studies",0.005 nM
"COc1cc2cc(C(=O)N3CC4CC45C3=CC(=O)c3ccccc35)[nH]c2c(OC)c1OC (stereo not drawn) [CBI-TMI, reference compound]",IC50,L1210 [1]; [4],0.03 nM
same,increase in cytotoxic potency over (+)-CBI-indole (5),L1210 [1]; [3],~100 fold and 90 fold
COc1c(O)c2c(c3cc(C(=O)N4CCc5c4c(O)c(OC)c4[nH]c(C(=O)N6CC7CC78C6=CC(=O)c6[nH]cc(C)c68)cc54)[nH]c13)CCN2C(N)=O (stereo not drawn) [CC-1065],IC50,L1210 [1]; [5],0.02 nM
"O=C1C=C2N(C(=O)c3cc4ccccc4[nH]3)CC3CC23c2ccccc21 [compound 5, N^2-[(Indole-2-yl)carbonyl]-(8bR,9aS)-1,2,9,9a-tetrahydrocyclopropa[c]benz[e]indol-4-one, reference compound]",IC50,L1210 [1]; [4],0.05 nM
"COc1cccc2[nH]c(C(=O)N3C[C@H]4C[C@@]45C3=CC(=O)c3ccccc35)cc12 [compound 6, N^2-[(4-Methoxyindole-2-yl)carbonyl]-(8bR,9aS)-1,2,9,9a-tetrahydrocyclopropa[c]benz[e]indol-4-one]",increase in cytotoxic potency over (+)-CBI-indole (5),L1210 [1]; [3],4 fold
same,decrease in cytotoxic potency compared with CBI-TMI (4),L1210 [1]; [6],17 fold and 16-17 fold
"COc1ccc2[nH]c(C(=O)N3C[C@H]4C[C@@]45C3=CC(=O)c3ccccc35)cc2c1 [compound 7, N^2-[(5-Methoxyindole-2-yl)carbonyl]-(8bR,9aS)-1,2,9,9a-tetrahydrocyclopropa[c]benz[e]indol-4-one]",IC50,L1210 [1]; [4],0.05 nM
same,decrease in cytotoxic potency compared with CBI-TMI (4),L1210 [1]; [6],1.6 fold
"COc1ccc2[nH]c(C(=O)N3CC4CC45C3=CC(=O)c3ccccc35)cc2c1OC [compound 10, N^2-[(4,5-Dimethoxyindole-2-yl)carbonyl]-(8bR,9aS)-1,2,9,9a-tetrahydrocyclopropa[c]benz[e]indol-4-one]",relative cytotoxic potency in words,L1210 [1],much less active
"COc1ccc2cc(C(=O)N3CC4CC45C3=CC(=O)c3ccccc35)[nH]c2c1OC [compound 12, N^2-[(6,7-Dimethoxyindole-2-yl)carbonyl]-(8bR,9aS)-1,2,9,9a-tetrahydrocyclopropa[c]benz[e]indol-4-one]",decrease in cytotoxic potency compared with CBI-TMI (4),L1210 [1]; [6],6.6 fold
"CCOc1ccc2[nH]c(C(=O)N3CC4CC45C3=CC(=O)c3ccccc35)cc2c1 [compound 15, N^2-[(5-Ethoxyindole-2-yl)carbonyl]-(8bR,9aS)-1,2,9,9a-tetrahydrocyclopropa[c]benz[e]indol-4-one]",additional increase in cytotoxic potency versus C5 methoxy,L1210 [1]; C5 alkyl ethers relative to C5 OMe,5 fold
same,IC50,L1210 [1]; [4],0.01 nM
"CSc1ccc2[nH]c(C(=O)N3CC4CC45C3=CC(=O)c3ccccc35)cc2c1 [compound 21, N^2-[(5-Thiomethylindole-2-yl)carbonyl]-(8bR,9aS)-1,2,9,9a-tetrahydrocyclopropa[c]benz-[e]indol-4-one]",IC50,L1210 [1]; [4],0.05 nM
"CCSc1ccc2[nH]c(C(=O)N3CC4CC45C3=CC(=O)c3ccccc35)cc2c1 [compound 23, N^2-[(5-Thioethylindole-2-yl)carbonyl]-(8bR,9aS)-1,2,9,9a-tetrahydrocyclopropa[c]benz[e]indol-4-one]",IC50,L1210 [1]; [4],0.1 nM
"Cc1ccc2[nH]c(C(=O)N3C[C@H]4C[C@@]45C3=CC(=O)c3ccccc35)cc2c1 [compound 24, N^2-[(5-Methylindole-2-yl)carbonyl]-(8bR,9aS)-1,2,9,9a-tetrahydrocyclopropa[c]benz[e]in-dol-4-one]",IC50,L1210 [1]; [4],2 nM
"CCc1ccc2[nH]c(C(=O)N3CC4CC45C3=CC(=O)c3ccccc35)cc2c1 [compound 25, N^2-[(5-Ethylindole-2-yl)carbonyl]-(8bR,9aS)-1,2,9,9a-tetrahydrocyclopropa[c]benz[e]indol-4-one]",IC50,L1210 [1]; [4],2 nM
"N#Cc1ccc2[nH]c(C(=O)N3CC4CC45C3=CC(=O)c3ccccc35)cc2c1 [compound 31, N^2-[(5-Cyanoindole-2-yl)carbonyl]-(8bR,9aS)-1,2,9,9a-tetrahydrocyclopropa[c]benz[e]in-dol-4-one]",IC50,L1210 [1]; [4],0.03 nM
"O=C(c1cc2cc([N+](=O)[O-])ccc2[nH]1)N1C[C@@H](CCl)c2c1cc(O)c1ccccc21 [compound 49, 3-(5-Nitroindole-2-carbonyl)-1-(S)-(chloromethyl)-5-hydroxy-1,2-dihydro-3H-benz[e]indole]",distinction NO2 versus OMe substituent (more potent than corresponding methoxy derivative),L1210 [1],2.5 ×
same,IC50,L1210 [1]; [5],0.02 nM
"O=C(c1cc2ccc([N+](=O)[O-])cc2[nH]1)N1C[C@@H](CCl)c2c1cc(O)c1ccccc21 [compound 50, 3-(6-Nitroindole-2-carbonyl)-1-(S)-(chloromethyl)-5-hydroxy-1,2-dihydro-3H-benz[e]indole]",distinction NO2 versus OMe substituent (more potent than corresponding methoxy derivative),L1210 [1],5 ×
"O=C(c1cc2cccc([N+](=O)[O-])c2[nH]1)N1C[C@@H](CCl)c2c1cc(O)c1ccccc21 [compound 51, 3-(7-Nitroindole-2-carbonyl)-1-(S)-(chloromethyl)-5-hydroxy-1,2-dihydro-3H-benz[e]indole]",distinction NO2 versus OMe substituent (more potent than corresponding methoxy derivative),L1210 [1],1.5 ×
"O=Cc1ccc2[nH]c(C(=O)N3C[C@@H](CCl)c4c3cc(O)c3ccccc43)cc2c1 [compound 52, 3-(5-Formylindole-2-carbonyl)-1-(S)-(chloromethyl)-5-hydroxy-1,2-dihydro-3H-benz[e]indole]",fold less potent than C5 acyl derivative 54,L1210 [1],50 fold
"CC(=O)c1ccc2[nH]c(C(=O)N3C[C@H]4C[C@@]45C3=CC(=O)c3ccccc35)cc2c1 [compound 54, N^2-[(5-Acetylindole-2-yl)carbonyl]-(8bR,9aS)-1,2,9,9a-tetrahydrocyclopropa[c]benz[e]in-dol-4-one]",DNA alkylation selectivity,w794 DNA,no alterations in the inherent DNA alkylation selectivity
same,rate and efficiency of DNA alkylation,w794 DNA,enhanced rate and efficiency of DNA alkylation
same,increase in cytotoxic potency over (+)-CBI-indole (5),L1210 [1]; [3],1000 fold
"CCC(=O)c1ccc2[nH]c(C(=O)N3CC4CC45C3=CC(=O)c3ccccc35)cc2c1 [compound 56, N^2-[(5-Propionylindole-2-yl)carbonyl]-(8bR,9aS)-1,2,9,9a-tetrahydrocyclopropa[c]benz[e]-indol-4-one]",increase in cytotoxic potency over (+)-CBI-indole (5),L1210 [1]; [3],1000 fold
"CCCC(=O)c1ccc2[nH]c(C(=O)N3C[C@H]4C[C@@]45C3=CC(=O)c3ccccc35)cc2c1 [compound 57, N^2-[(5-Butyrylindole-2-yl)carbonyl]-(8bR,9aS)-1,2,9,9a-tetrahydrocyclopropa[c]benz[e]indol-4-one]",IC50,L1210 [1]; [4],0.02 nM
"CNC(=O)c1ccc2[nH]c(C(=O)N3C[C@@H](CCl)c4c3cc(O)c3ccccc43)cc2c1 [compound 62, 3-(5-Methylcarbamoylindole-2-carbonyl)-1-(S)-(chloromethyl)-5-hydroxy-1,2-dihydro-3H-benz[e]indole]",fold less potent than C5 acyl derivative 54,L1210 [1],5 fold
same,fold more potent than (+)-CBI-TMI,L1210 [1]; [6],3 fold
"CS(=O)(=O)c1ccc2[nH]c(C(=O)N3C[C@@H](CCl)c4c3cc(O)c3ccccc43)cc2c1 [compound 64, 3-(5-Methylsulfonylindole-2-carbonyl)-1-(S)-(chloromethyl)-5-hydroxy-1,2-dihydro-3H-benz[e]indole]",IC50,L1210 [1]; [5],0.003 nM
same,increase in cytotoxic potency over (+)-CBI-indole (5),L1210 [1]; [3],1000 fold
"CCS(=O)(=O)c1ccc2[nH]c(C(=O)N3C[C@@H](CCl)c4c3cc(O)c3ccccc43)cc2c1 [compound 65, 3-(5-Ethylsulfonylindole-2-carbonyl)-1-(S)-(chloromethyl)-5-hydroxy-1,2-dihydro-3H-benz[e]indole]",IC50,L1210 [1]; [5],0.04 nM
"O=C1C=C2N(C(=O)c3cc4c5c(ccc4[nH]3)OCC5)CC3CC23c2ccccc21 [compound 70, N^2-[(1,2-Dihydropyrrolo[3,2-e]benzofuran-7-yl)carbonyl]-(8bR,9aS)-1,2,9,9a-tetrahydro-cyclopropa[c]benz[e]indol-4-one]",relative cytotoxic potency in words,L1210 [1],slightly more potent than 7
"O=C1CCc2c1ccc1[nH]c(C(=O)N3C[C@@H](CCl)c4c3cc(O)c3ccccc43)cc21 [compound 72, 3-(6-Oxo-cyclopenten[e]indole-2-carbonyl)-1-(S)-(chloromethyl)-5-hydroxy-1,2-dihydro-3H-benz[e]indole]",relative cytotoxic potency in words,L1210 [1],matched the potency of the C5 substituted methyl and ethyl ketones 54 and 56
"O=C(C1Oc2ccc3[nH]ccc3c2O1)N1C[C@@H](CCl)c2c1cc(O)c1ccccc21 (stereo partly drawn) [compound 74, 3-([1,3]Dioxolo[e]indole-2-carbonyl)-1-(S)-(chloromethyl)-5-hydroxy-1,2-dihydro-3H-benz[e]indole]",relative cytotoxic potency in words,L1210 [1],"much more active than the corresponding unconstrained 4,5 dimethoxy derivative 10"
"O=C1C=C2N(C(=O)c3cc4cc5c(cc4[nH]3)OCO5)C[C@H]3C[C@@]23c2ccccc21 [compound 75, N^2-[([1,3]Dioxolo[f]indole-2-yl)carbonyl]-(8bR,9aS)-1,2,9,9a-tetrahydrocyclopropa[c]-benz[e]indol-4-one]",relative cytotoxic potency in words,L1210 [1],"substantially less potent than the corresponding unconstrained C5,6 dimethoxy derivative 11"
"COC(=O)c1cc2c([nH]1)C(=O)C=C1N(C(=O)c3cc4cc(OC)c(OC)c(OC)c4[nH]3)CC3CC123 (stereo not drawn) [duocarmycin SA, reference compound]","effect of 5,6,7-trimethoxy substitution / removal of TMI methoxy substituents on cytotoxic potency",L1210 [2]; literature comparison series,6.5-10 fold
same,IC50,L1210 [1]; [5],0.006 to 0.01 nM
